Measured values reported in patent US20060276414A1, “Use of compositions comprising an estrogenic component for the treatment and prevention of musculoskeletal pain” (priority 2003, published 2006).

Columns and labels:
[1] = tested on: DMBA-induced mammary tumours; settings: literature (Hollingsworth et al., 1998); cited from earlier work
[2] = tested on: DMBA-induced mammary tumours; assay: 7,12-dimethyl-benz(a)anthracene (DMBA)-induced tumour model in rats; assay type: in vivo, Sprague-Dawley rats
Protocol: In order to assess the effect of the present estrogenic substances on tumours, estetrol was tested in the 7,12-dimethyl-benz(a)anthracene (DMBA)-induced tumour model in rats. This model, originally developed by Huggins et al.,1961 (Nature,19, 204-207), has been widely used and is a generally accepted model with predictive value for anti-tumour agents in humans. The growth of the DMBA-induced tumours is dependent on endogenously produced estradiol or exogenously administered estrogens and prolactin (Sylvester et al., 1982, Cancer Research, 42, 4943-4947).
Eighty-four female Sprague-Dawley rats (Harlan, The Netherlands) were group housed, maintained in a 12-hr light/dark environment, and fed a Soya Free Diet (SDS England) and water ad libitum. Animals were weighed on a weekly basis. One week prior to induction of mammary carcinoma, 12 animals (aged 43 days) were surgically castrated via removal of the ovaries. At the age of 50 days, all animals were administered a single oral dose of 16 mg DMBA to induce tumour development. Animals were subsequently allocated to one of seven groups (n=12), receiving placebo or treatment as follows:. • Group 1 animals received placebo oral treatment with 3.0 ml/kg/day vehicle (20% wt/vol solution of hydroxypropyl-beta-cyclodextrin in water); • Group 2 surgically castrated animals received placebo treatment with 3.0 ml/kg/day vehicle; • Group 3 animals received the anti-estrogen tamoxifen given orally at a single daily dose of 3 mg/kg; • Group 4 animals received ethinylestradiol (EE) orally at a single daily dose of 0.025 mg/kg; • Group S animals received ethinylestradiol (EE) orally at a single daily dose of 0.125 mg/kg; • Group 6 animals received estetrol (E4) orally at a single daily dose of 0.5 mg/kg; and • Group 7 animals received estetrol (E4) orally at a single daily dose of 2.5 mg/kg.
During the treatment period of 8 weeks, the emergence of palpable tumours and number of tumours were determined weekly. At 8 weeks, at necropsy, final measurements were taken. The number of tumours at necropsy are depicted in FIG. 1.

[3] = tested on: early breast cancer in postmenopausal women; settings: 9366 patients; cited from earlier work
[4] = tested on: musculoskeletal pain in premenopausal breast cancer patients; assay: Example 3: placebo-controlled cross-over study, premenopausal breast cancer patients on estrogen suppressant therapy; assay type: in vivo, human patients; settings: premenopausal patients with ovarian ablation, estetrol plus estrogen suppressant
[5] = tested on: bone resorption, hot flushing and vaginal cornification; assay: agonistic models of in vivo estrogenicity (previous studies); settings: data from previous studies
Protocol: The doses of EE and E4 were based on data from previous studies, showing equipotency of 0.025 mg/kg/day EE and 0.5 mg/kg/day E4 in agonistic models of preventing bone resorption, prevention of hot flushing and vaginal comification.

[6] = tested on: musculoskeletal pain in postmenopausal breast cancer patients; assay: Example 2: placebo-controlled cross-over study, postmenopausal breast cancer patients (stage I or II) on estrogen suppressant therapy; assay type: in vivo, human patients; settings: for average musculoskeletal pain sensation value during treatment weeks, vs placebo: 4 mg/day oral estetrol, 6 weeks
From the text: 20 postmenopausal patients are recruited that have breast cancer in clinical staging I or II, are adequately being treated surgically, chemotherapeutically and/or radiotherapeutically, show estrogen receptor positive tumour histology and do no have contraindications for steroid therapy, are on treatment with either an anti-estrogen or an aromatase inhibitor for at least three months and suffer from musculoskeletal pain complaints (defined as skeletal pain, pain in the legs, arms or back). Furthermore, during the screening phase other diagnoses, such as rheumatoid arthritis and/or other skeletal diseases or joint diseases, are excluded.
(§1) The patients participate in a clinical study with a duration of 15 weeks and are randomized as follows:
(§2) Patients continue with the anti-estrogen treatment that they have been receiving previously during the entire period of the study and receive additional daily oral treatment with 4 mg estetrol or a placebo for six weeks. 5 patients start with 4 mg/day oral estetrol treatment and 5 patients with placebo treatment. After a wash-out period of 3 weeks, during which anti-estrogen treatment continues and no additional estetrol or placebo treatment is given, study treatment is reinitiated. Placebo-receiving patients are subsequently treated with 4 mg/day oral estetrol and estetrol-receiving patients with placebo for 6 weeks after which the study is terminated.
as §2, with “aromatase inhibitor” for “anti-estrogen”
The subjects visit the study center once weekly, during which the patients are closely monitored by their study physician. During all visits, thorough physical examinations are performed, blood samples are retrieved and a questionnaire, specifically addressing musculoskeletal pain sensation on a graded scale and climacteric complaints, is completed. Primary endpoints in the study are improvement of the musculoskeletal pain and reduction of climacteric complaints, whereas secondary endpoints are clinical tumour progression and changes of tumour markers.

[7] = tested on: tumour gene expression profile and musculoskeletal pain in postmenopausal breast cancer patients; assay: Example 4: placebo-controlled cross-over study with fine needle aspiration, postmenopausal breast cancer patients (at least stage III); assay type: in vivo, human patients; settings: for average musculoskeletal pain sensation value during treatment weeks, vs placebo: 6 weeks
From the text: 20 postmenopausal patients are recruited that have breast cancer in at least clinical staging […], have a palpable macroscopic tumour mass, show estrogen receptor positive tumour histology, have already been treated with either an anti-estrogen or an aromatase inhibitor for at least three months, do no have contraindications for steroid therapy and suffer from musculoskeletal pain complaints (defined as skeletal pain, pain in the legs, arms or back). Furthermore, during the screening phase other diagnoses, such as rheumatoid arthritis and/or other skeletal diseases or joint diseases, are excluded.
as §1
as §2, with “treatment” for “treatment that”
as §2, with “aromatase inhibitor” for “anti-estrogen”, “treatment” for “treatment that”
The patients visit the study center once weekly, during which the patients are closely monitored by their study physician. During all visits, thorough physical examinations are performed, blood samples are retrieved and a questionnaire, specifically addressing musculoskeletal pain sensation on a graded scale, is completed. Furthermore, three fine needle aspirations (FNA) from the macroscopic tumour are obtained at baseline, during the wash-out and at the last visit after study week 15, respectively. Additionally at the same time points and for all locations with macroscopic palpable tumour activity, tumour sizes are scored. Tumour gene expression profiles are determined by using a FNA-cDNA microarray as described by Sotiriou et al. (Breast Cancer Research 2002,4:R3). Primary endpoints in the study are changes of the gene expression profile, improvement of the musculoskeletal pain and reduction of climacteric complaints, whereas secondary endpoints are clinical tumour progression and changes of tumour markers.

[8] = 4 mg/day oral estetrol added to estrogen suppressant therapy

SMILES: CC/C(=C(\c1ccccc1)c1ccc(OCCN(C)C)cc1)c1ccccc1 [tamoxifen, reference compound]
- anti-tumour treatment in the DMBA model [1]: effective anti-tumour treatments
- development of mammary tumours (number of tumours at necropsy) ([2]; tamoxifen 3 mg/kg/day orally, 8 weeks, DMBA-treated female rats): inhibiting the development of mammary tumours

SMILES: CC(C)(C#N)c1cc(Cn2cncn2)cc(C(C)(C)C#N)c1 [anastrozole]
- disease-free survival and incidence of contralateral breast cancer, compared with tamoxifen [3]: significantly superior

SMILES: C[C@]12CC[C@@H]3c4ccc(O)cc4CC[C@H]3[C@@H]1[C@@H](O)[C@@H](O)[C@@H]2O [estetrol, 1,3,5 (10)-estratrien-3,15α,16α,17β-tetrol]
- clinical outcome (musculoskeletal pain) compared with postmenopausal patients [4]: similar-to the clinical outcome reported for postmenopausal breast cancer patients
- equipotency with EE in preventing bone resorption, prevention of hot flushing and vaginal cornification ([5]; 0.5 mg/kg/day E4 vs 0.025 mg/kg/day EE): equipotency
- equipotency with EE in in vivo estrogenicity (preventing bone resorption, hot flushing, vaginal cornification) ([5]; 2.5 mg/kg/day E4 vs 0.125 mg/kg/day EE): equipotency
- climacteric complaints (questionnaires) [6, 8]: overall reduction
- average musculoskeletal pain sensation value during treatment weeks, vs placebo ([6]; concomitant anti-estrogen therapy): significantly lower
- average musculoskeletal pain sensation value during treatment weeks, vs placebo ([6]; concomitant aromatase inhibitor therapy): significantly lower
- clinical tumour progression and tumour markers ([6]; during treatment with estetrol, vs baseline and recurrency data for stages I and II): do not show significant adverse changes
- preventing growth of DMBA-induced tumours, compared with tamoxifen ([2]; E4 2.5 mg/kg/day orally vs tamoxifen 3 mg/kg/day orally): as effective as tamoxifen
- mammary tumour development (number of tumours at necropsy) ([2]; E4 2.5 mg/kg/day orally, 8 weeks, DMBA-treated female rats): markedly suppressed mammary tumour development
- climacteric complaints (questionnaires) [7, 8]: overall reduction
- molecular profile on concomitant administration with an anti-estrogen or an aromatase inhibitor ([7]; 4 mg/day oral estetrol plus anti-estrogen or aromatase inhibitor): synergistically produces a more beneficial molecular profile
- average musculoskeletal pain sensation value during treatment weeks, vs placebo ([7]; 4 mg/day oral estetrol, concomitant anti-estrogen therapy): significantly lower
- average musculoskeletal pain sensation value during treatment weeks, vs placebo ([7]; 4 mg/day oral estetrol, concomitant aromatase inhibitor therapy): significantly lower
- changes in the gene-expression profile involved in regulation and deregulation of breast tissue proliferation ([7]; 4 mg/day oral estetrol, FNA-cDNA microarray): favourable association
- tumour progression / sizes of macroscopic tumours ([7]; additional estetrol treatment, vs baseline and progression data for stages III and more): tumours progress more slowly or sizes of macroscopically tumours decline
